# According to US10781201B2, “Benzimidazole derivative having JNK inhibitory activity and use thereof” (INDUSTRY-UNIVERSITY COOPERATION FOUNDATION HANYANG …, priority 2017, dated 2020):
# Target: human JNK3 enzyme (Homo sapiens, UniProt P53779)
# Assay: Measurement of JNK3 enzymatic activity (33P-ATP filter-binding method)
# Assay type: biochemical
# Details: Table 1; ATP 10 μM, ATF2 3 μM
# Protocol: First, a substrate was added to a prepared base reaction buffer solution (20 mM Hepes (pH 7.5), 10 mM MgCl2, 1 mM EGTA, 0.02% Brij35, 0.02 mg/ml BSA, 0.1 mM Na3VO4, 2 mM DTT, 1% DMSO), a human JNK3 enzyme was added into the prepared substrate solution, and the resulting solution was mixed. ATP (10 μM) and ATF2 (3 μM) were used as substrates, and among them, ATP was used as a common substrate. Next, the compound according to the present invention dissolved in 100% DMSO was added to an enzyme reaction solution, and incubated at room temperature for 20 minutes. Subsequently, ^33P-ATP was added to the mixed reaction solution to initiate the reaction, followed by incubation at room temperature for 2 hours, and enzymatic activity was detected by a filter-binding method. Specifically, 25 al per resulting solution was slowly spotted on P81 paper and placed in a scintillation vial, and then the paper was washed four times with 0.75% phosphoric acid for 10 minutes each and washed once with acetone for 5 minutes. 5 ml of a scintillation cocktail was added to the scintillation vial and signals were read using a scintillation counter.
# Chain of human JNK3 enzyme (P53779 whole entry): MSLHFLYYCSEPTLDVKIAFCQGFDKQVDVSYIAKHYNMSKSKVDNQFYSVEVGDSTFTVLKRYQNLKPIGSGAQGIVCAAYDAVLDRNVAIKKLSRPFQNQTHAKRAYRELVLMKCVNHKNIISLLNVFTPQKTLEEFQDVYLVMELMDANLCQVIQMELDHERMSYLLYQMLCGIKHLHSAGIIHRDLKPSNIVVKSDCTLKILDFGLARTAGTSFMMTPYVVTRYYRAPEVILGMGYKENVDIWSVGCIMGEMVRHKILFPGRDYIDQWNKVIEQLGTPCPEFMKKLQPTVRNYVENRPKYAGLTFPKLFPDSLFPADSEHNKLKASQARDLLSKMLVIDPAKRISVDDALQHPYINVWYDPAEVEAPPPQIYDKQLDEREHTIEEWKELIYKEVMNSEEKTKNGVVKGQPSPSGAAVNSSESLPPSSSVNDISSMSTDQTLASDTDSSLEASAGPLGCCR
row,Structure (SMILES),IC50 [nM]
1,"Oc1ccc2c(c1)nc(-c1ccc3ccccc3c1)n2-c1ccnc(NC2CCOCC2)n1 [Compound 9a, 2-(naphthalene-2-yl)-1-(2-((tetrahydro-2H-pyran-4-yl)amino)pyrimidin-4-yl)-1H-benzo[d]imidazole-5-ol]",> 100
2,"Oc1ccc2c(c1)nc(-c1ccc3c(c1)OCCO3)n2-c1ccnc(NC2CCOCC2)n1 [Compound 9c, 2-(2,3-dihydrobenzo[b][1,4]dioxin-6-yl)-1-(2-((tetrahydro-2H-pyran-4-yl)amino)pyrimidin-4-yl)-1H-benzo[d]imidazole-5-ol]",> 100
3,"Oc1ccc2c(c1)nc(-c1ccc3occc3c1)n2-c1ccnc(NC2CCOCC2)n1 [Compound 9d, 2-(benzofuran-5-yl)-1-(2-((tetrahydro-2H-pyran-4-yl)amino)pyrimidin-4-yl)-1H-benzo[d]imidazole-5-ol]",> 100
4,Oc1ccc2c(c1)nc(-c1ccc(Cl)c(Cl)c1)n2-c1ccnc(NC2CCOCC2)n1 [Compound 9e],30 to 100
5,"Oc1ccc2c(c1)nc(-c1ccc(F)c(C(F)(F)F)c1)n2-c1ccnc(NC2CCOCC2)n1 [Compound 9f, 2-(4-fluoro-3-(trifluoromethyl)phenyl)-1-(2-((tetrahydro-2H-pyran-4-yl)amino)pyrimidin-4-yl)-1H-benzo[d]imidazole-5-ol]",30 to 100
6,"Oc1ccc2c(c1)nc(-c1ccc3ccccc3c1)n2-c1ccnc(NC2CCCCC2)n1 [Compound 10a, 1-(2-(cyclohexylamino)pyrimidin-4-yl)-2-(naphthalene-2-yl)-1H-benzo[d]imidazole-5-ol]",> 100
7,"Oc1ccc2c(c1)nc(-c1ccc3c(c1)OCCO3)n2-c1ccnc(NC2CCCCC2)n1 [Compound 10c, 1-(2-(cyclohexylamino)pyrimidin-4-yl)-2-(2,3-dihydrobenzo[b][1,4]dioxin-6-yl)-1H-benzo[d]imidazole-5-ol]",> 100
8,"Oc1ccc2c(c1)nc(-c1ccc3occc3c1)n2-c1ccnc(NC2CCCCC2)n1 [Compound 10d, 2-(benzofuran-5-yl)-1-(2-(cyclohexylamine)pyrimidin-4-yl)-1H-benzo[d]imidazole-5-ol]",> 100
9,"Oc1ccc2c(c1)nc(-c1ccc(Cl)c(Cl)c1)n2-c1ccnc(NC2CCCCC2)n1 [Compound 10e, 1-(2-(cyclohexylamino)pyrimidin-4-yl)-2-(3,4-dichlorophenyl)-1H-benzo[d]imidazole-5-ol]",> 100
10,"Oc1ccc2c(c1)nc(-c1ccc(F)c(C(F)(F)F)c1)n2-c1ccnc(NC2CCCCC2)n1 [Compound 10f, 1-(2-(cyclohexylamino)pyrimidin-4-yl)-2-(4-fluoro-3-(trifluoromethyl)phenyl)-1H-benzo[d]imidazole-5-ol]",> 100

# Other lines, results leading:
row,IC50 [nM],Structure (SMILES)
1,30 to 100,"O=C(C1CC1)N1CCC[C@H](Nc2nccc(-n3c(-c4ccc5ccccc5c4)nc4cc(O)ccc43)n2)C1 [Compound 13a, (S)-cyclopropyl(3-((4-(5-hydroxy-2-(naphthalene-2-yl)-1H-benzo[d]imidazole-1-yl)pyrimidin-2-yl)amino)piperidine-1-yl)methanone]"
2,30 to 100,"O=C(C1CC1)N1CCC[C@H](Nc2nccc(-n3c(-c4ccc5ccccc5n4)nc4cc(O)ccc43)n2)C1 [Compound 13b, (S)-cyclopropyl(3-((4-(5-hydroxy-2-(Quinoline-2-yl)-1H-benzo[d]imidazole-1-yl)pyrimidin-2-yl)amino)piperidine-1-yl)methanone]"
3,30 to 100,"O=C(C1CC1)N1CCC[C@H](Nc2nccc(-n3c(-c4ccc5c(c4)OCCO5)nc4cc(O)ccc43)n2)C1 [Compound 13c, (S)-cyclopropyl(3-((4-(2-(2,3-dihydrobenzo[b][1,4]dioxin-6-yl)-5-hydroxy-1H-benzo[d]imidazole-1-yl)pyrimidin-2-yl)amino)piperidine-1-yl)methanone]"
4,< 30,"O=C(C1CC1)N1CCC[C@H](Nc2nccc(-n3c(-c4ccc5occc5c4)nc4cc(O)ccc43)n2)C1 [Compound 13d, (S)-(3-(4-(2-(benzofuran-5-yl)-5-hydroxy-1H-benz[d]imidazole-1-yl)pyrimidin-2-ylamino)piperidine-1-yl)(cyclopropyl)methanone]"
5,< 30,"O=C(C1CC1)N1CCC[C@H](Nc2nccc(-n3c(-c4ccc(Cl)c(Cl)c4)nc4cc(O)ccc43)n2)C1 [Compound 13e, (S)-cyclopropyl(3-((4-(2-(3,4-dichlorophenyl)-5-hydroxy-1H-benzo[d]imidazole-1-yl)pyrimidin-2-yl)amino)piperidine-1-yl)methanone]"
6,30 to 100,"O=C(C1CC1)N1CCC[C@H](Nc2nccc(-n3c(-c4ccc(F)c(C(F)(F)F)c4)nc4cc(O)ccc43)n2)C1 [Compound 13f, (S)-cyclopropyl(3-((4-(2-(4-fluoro-3-(trifluoromethyl)phenyl)-5-hydroxy-1H-benzo[d]imidazole-1-yl)pyrimidin-2-yl)amino)piperidine-1-yl)methanone]"
7,30 to 100,"O=C(C1CC1)N1CCC[C@H](Nc2nccc(-n3c(-c4ccc5c(c4)OCO5)nc4cc(O)ccc43)n2)C1 [Compound 13g, (S)-(3-(4-(2-(benzo[d][1,3]dioxole-5-yl)-5-hydroxy-1H-benz[d]imidazole-1-yl)pyrimidin-2-ylamino)piperidine-1-yl)(cyclopropyl)methanone]"

# Same assay, conditions: Table 2; ATP 10 μM, ATF2 3 μM
row,IC50 [nM],Structure (SMILES)
1,30 to 100,"Oc1ccc2nc(-c3ccc4ccccc4c3)n(-c3ccnc(NC4CCOCC4)n3)c2c1 [Compound 22a, 2-(naphthalene-2-yl)-1-(2-((tetrahydro-2H-pyran-4-yl)amino)pyrimidin-4-yl)-1H-benzo[d]imidazole-6-ol]"
2,30 to 100,"Oc1ccc2nc(-c3ccc4ccccc4n3)n(-c3ccnc(NC4CCOCC4)n3)c2c1 [Compound 22b, 2-(Quinoline-2-yl)-1-(2-((tetrahydro-2H-pyran-4-yl)amino)pyrimidin-4-yl)-1H-benzo[d]imidazole-6-ol]"
3,30 to 100,"Oc1ccc2nc(-c3ccc4c(c3)OCCO4)n(-c3ccnc(NC4CCOCC4)n3)c2c1 [Compound 22c, 2-(2,3-dihydrobenzo[b][1,4]dioxin-6-yl)-1-(2-((tetrahydro-2H-pyran-4-yl)amino)pyrimidin-4-yl)-1H-benzo[d]imidazole-6-ol]"
4,30 to 100,"Oc1ccc2nc(-c3ccc4occc4c3)n(-c3ccnc(NC4CCOCC4)n3)c2c1 [Compound 22d, 2-(benzofuran-5-yl)-1-(2-((tetrahydro-2H-pyran-4-yl)amino)pyrimidin-4-yl)-1H-benzo[d]imidazole-6-ol]"
5,> 100,"Oc1ccc2nc(-c3ccc4ccccc4c3)n(-c3ccnc(NC4CCCCC4)n3)c2c1 [Compound 23a, 1-(2-(cyclohexylamino)pyrimidin-4-yl)-2-(naphthalene-2-yl)-1H-benzo[d]imidazole-6-ol]"
6,> 100,"Oc1ccc2nc(-c3ccc4ccccc4n3)n(-c3ccnc(NC4CCCCC4)n3)c2c1 [Compound 23b, 3-(2-(cyclohexylamino)pyrimidin-4-yl)-2-(Quinoline-2-yl)-3H-benz[d]imidazole-5-ol]"
7,> 100,"Oc1ccc2nc(-c3ccc4c(c3)OCCO4)n(-c3ccnc(NC4CCCCC4)n3)c2c1 [Compound 23c, 1-(2-(cyclohexylamino)pyrimidin-4-yl)-2-(2,3-dihydrobenzo[b][1,4]dioxin-6-yl)-1H-benzo[d]imidazole-6-ol]"
8,> 100,"Oc1ccc2nc(-c3ccc4occc4c3)n(-c3ccnc(NC4CCCCC4)n3)c2c1 [Compound 23d, 2-(benzofuran-5-yl)-1-(2-(cyclohexylamino)pyrimidin-4-yl)-1H-benzo[d]imidazole-6-ol]"
9,30 to 100,"Oc1ccc2nc(-c3ccc(Cl)c(Cl)c3)n(-c3ccnc(NC4CCCCC4)n3)c2c1 [Compound 23e, 1-(2-(cyclohexylamino)pyrimidin-4-yl)-2-(3,4-dichlorophenyl)-1H-benzo[d]imidazole-6-ol]"
10,> 100,"Oc1ccc2nc(-c3ccc(F)c(C(F)(F)F)c3)n(-c3ccnc(NC4CCCCC4)n3)c2c1 [Compound 23f, 1-(2-(cyclohexylamino)pyrimidin-4-yl)-2-(4-fluoro-3-(trifluoromethyl)phenyl)-1H-benzo[d]imidazole-6-ol]"
11,30 to 100,"O=C(C1CC1)N1CCC[C@H](Nc2nccc(-n3c(-c4ccc5ccccc5n4)nc4ccc(O)cc43)n2)C1 [Compound 26b, (S)-cyclopropyl(3-(4-(6-hydroxy-2-(Quinoline-2-yl)-1H-benzo[d]imidazole-1-yl)pyrimidin-2-ylamino)piperidine-1-yl)methanone]"
12,< 30,"O=C(C1CC1)N1CCC[C@H](Nc2nccc(-n3c(-c4ccc5occc5c4)nc4ccc(O)cc43)n2)C1 [Compound 26d, (S)-(3-((4-(2-(benzofuran-5-yl)-6-hydroxy-1H-benzo[d]imidazole-1-yl)pyrimidin-2-yl)amino)piperidine-1-yl)(cyclopropyl)methanone]"
13,< 30,"O=C(C1CC1)N1CCC[C@H](Nc2nccc(-n3c(-c4ccc(Cl)c(Cl)c4)nc4ccc(O)cc43)n2)C1 [Compound 26e, (S)-cyclopropyl(3-((4-(2-(3,4-dichlorophenyl)-6-hydroxy-1H-benzo[d]imidazole-1-yl)pyrimidin-2-yl)amino)piperidine-1-yl)methanone]"
14,30 to 100,"O=C(C1CC1)N1CCC[C@H](Nc2nccc(-n3c(-c4ccc(F)c(C(F)(F)F)c4)nc4ccc(O)cc43)n2)C1 [Compound 26f, (S)-cyclopropyl(3-((4-(2-(4-fluoro-3-(trifluoromethyl)phenyl)-6-hydroxy-1H-benzo[d]imidazole-1-yl)pyrimidin-2-yl)amino)piperidine-1-yl)methanone]"
